# Calls of active or inactive are those of the source.
# How the values were obtained:
# [1] = target: T1, Thyroid hormone receptor-associated protein 3 (Homo sapiens, UniProt Q9Y2W1)
# T1 sequence (Q9Y2W1 whole entry): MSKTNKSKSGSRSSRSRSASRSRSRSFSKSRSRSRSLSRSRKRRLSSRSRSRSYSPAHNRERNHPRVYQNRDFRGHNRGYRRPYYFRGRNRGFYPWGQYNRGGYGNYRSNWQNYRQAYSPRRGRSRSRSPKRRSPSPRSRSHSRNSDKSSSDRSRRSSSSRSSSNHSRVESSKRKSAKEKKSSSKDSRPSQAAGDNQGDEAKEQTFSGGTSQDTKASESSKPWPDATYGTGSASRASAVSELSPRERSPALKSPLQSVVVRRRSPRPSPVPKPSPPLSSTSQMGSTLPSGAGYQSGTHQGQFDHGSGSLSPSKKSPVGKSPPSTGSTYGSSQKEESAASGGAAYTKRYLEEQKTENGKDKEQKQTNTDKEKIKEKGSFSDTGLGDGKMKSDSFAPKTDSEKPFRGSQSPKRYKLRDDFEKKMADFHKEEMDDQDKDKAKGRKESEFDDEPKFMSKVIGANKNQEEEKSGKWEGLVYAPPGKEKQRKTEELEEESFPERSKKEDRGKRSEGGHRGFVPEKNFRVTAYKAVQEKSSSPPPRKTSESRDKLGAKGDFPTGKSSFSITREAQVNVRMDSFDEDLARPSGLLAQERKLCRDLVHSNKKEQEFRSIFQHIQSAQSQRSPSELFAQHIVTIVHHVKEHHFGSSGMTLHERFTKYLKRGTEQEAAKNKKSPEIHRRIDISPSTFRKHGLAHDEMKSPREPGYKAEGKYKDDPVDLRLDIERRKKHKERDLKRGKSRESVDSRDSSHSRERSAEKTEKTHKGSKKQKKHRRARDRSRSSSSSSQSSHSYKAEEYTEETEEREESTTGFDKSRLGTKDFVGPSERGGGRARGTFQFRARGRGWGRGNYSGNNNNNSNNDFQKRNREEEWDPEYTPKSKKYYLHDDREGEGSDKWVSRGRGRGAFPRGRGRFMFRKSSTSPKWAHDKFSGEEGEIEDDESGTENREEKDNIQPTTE
# [2] = target: T2, Dual specificity protein kinase TTK (Homo sapiens, UniProt P33981)
# T2 sequence (P33981 whole entry): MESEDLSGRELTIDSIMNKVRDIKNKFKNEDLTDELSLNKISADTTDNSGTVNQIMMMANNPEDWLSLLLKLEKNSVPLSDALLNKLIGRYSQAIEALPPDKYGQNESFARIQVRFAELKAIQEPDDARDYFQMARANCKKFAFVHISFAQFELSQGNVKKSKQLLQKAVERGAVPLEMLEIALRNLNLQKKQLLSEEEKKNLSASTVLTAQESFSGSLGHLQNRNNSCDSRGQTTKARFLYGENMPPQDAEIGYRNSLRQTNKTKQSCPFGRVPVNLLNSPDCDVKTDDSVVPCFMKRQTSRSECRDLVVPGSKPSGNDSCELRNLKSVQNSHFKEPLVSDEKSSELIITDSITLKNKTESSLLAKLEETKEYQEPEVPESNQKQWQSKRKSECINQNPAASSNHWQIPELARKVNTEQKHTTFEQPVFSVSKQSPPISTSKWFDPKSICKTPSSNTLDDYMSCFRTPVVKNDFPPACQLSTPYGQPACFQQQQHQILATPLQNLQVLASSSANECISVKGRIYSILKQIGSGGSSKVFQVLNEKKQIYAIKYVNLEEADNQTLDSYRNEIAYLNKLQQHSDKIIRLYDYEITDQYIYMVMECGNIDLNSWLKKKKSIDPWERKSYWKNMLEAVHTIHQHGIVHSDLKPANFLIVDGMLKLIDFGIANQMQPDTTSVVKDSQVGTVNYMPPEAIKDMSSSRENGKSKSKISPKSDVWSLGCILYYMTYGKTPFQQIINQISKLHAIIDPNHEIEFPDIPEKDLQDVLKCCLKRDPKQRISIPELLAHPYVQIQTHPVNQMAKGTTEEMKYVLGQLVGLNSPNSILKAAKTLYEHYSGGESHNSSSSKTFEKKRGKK
# [3] = target: Serine/threonine-protein kinase PLK1 (Homo sapiens, UniProt P53350)
# [4] = target: Guanine nucleotide-binding protein G(i) subunit alpha-2 (Homo sapiens, UniProt P04899)
# [5] = target: G protein-coupled receptor kinase 6 (Homo sapiens, UniProt P43250)
# UMP-CMP kinase = target: T3, UMP-CMP kinase (Homo sapiens, UniProt P30085)
# T3 sequence (P30085 whole entry): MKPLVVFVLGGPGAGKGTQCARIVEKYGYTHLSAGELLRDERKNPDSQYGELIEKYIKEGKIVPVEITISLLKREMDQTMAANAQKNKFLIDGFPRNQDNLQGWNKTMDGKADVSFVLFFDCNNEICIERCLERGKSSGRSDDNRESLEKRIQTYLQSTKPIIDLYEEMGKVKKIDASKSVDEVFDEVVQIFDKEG
# [6] = target: T4, Protein kinase C zeta type (Homo sapiens, UniProt Q05513)
# T4 sequence (Q05513 whole entry): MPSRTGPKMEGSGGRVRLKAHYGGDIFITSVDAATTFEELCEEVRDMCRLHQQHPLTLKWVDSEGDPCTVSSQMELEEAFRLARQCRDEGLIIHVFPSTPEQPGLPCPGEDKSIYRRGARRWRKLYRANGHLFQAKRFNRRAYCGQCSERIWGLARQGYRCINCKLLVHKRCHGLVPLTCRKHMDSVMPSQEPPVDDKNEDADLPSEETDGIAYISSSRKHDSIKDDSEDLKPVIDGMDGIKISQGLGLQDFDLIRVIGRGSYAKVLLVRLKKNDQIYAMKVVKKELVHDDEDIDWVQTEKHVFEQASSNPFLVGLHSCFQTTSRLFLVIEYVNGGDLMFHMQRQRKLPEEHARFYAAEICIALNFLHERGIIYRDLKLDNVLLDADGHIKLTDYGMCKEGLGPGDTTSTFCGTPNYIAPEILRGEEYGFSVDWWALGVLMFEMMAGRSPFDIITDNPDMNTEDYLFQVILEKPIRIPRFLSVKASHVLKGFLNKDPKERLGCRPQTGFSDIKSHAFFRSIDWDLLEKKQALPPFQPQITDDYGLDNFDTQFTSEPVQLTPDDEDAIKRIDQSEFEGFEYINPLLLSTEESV
# [7] = target: Cyclin-dependent kinase 2 (Homo sapiens, UniProt P24941)
# [8] = target: Epidermal growth factor receptor (Homo sapiens, UniProt P00533)
# Myosin-10 = Myosin-10 (Homo sapiens, UniProt P35580)
# Also: in the data inactive means no Kd found up to 30 µM.
# Sequence of Epidermal growth factor receptor (P00533 whole entry): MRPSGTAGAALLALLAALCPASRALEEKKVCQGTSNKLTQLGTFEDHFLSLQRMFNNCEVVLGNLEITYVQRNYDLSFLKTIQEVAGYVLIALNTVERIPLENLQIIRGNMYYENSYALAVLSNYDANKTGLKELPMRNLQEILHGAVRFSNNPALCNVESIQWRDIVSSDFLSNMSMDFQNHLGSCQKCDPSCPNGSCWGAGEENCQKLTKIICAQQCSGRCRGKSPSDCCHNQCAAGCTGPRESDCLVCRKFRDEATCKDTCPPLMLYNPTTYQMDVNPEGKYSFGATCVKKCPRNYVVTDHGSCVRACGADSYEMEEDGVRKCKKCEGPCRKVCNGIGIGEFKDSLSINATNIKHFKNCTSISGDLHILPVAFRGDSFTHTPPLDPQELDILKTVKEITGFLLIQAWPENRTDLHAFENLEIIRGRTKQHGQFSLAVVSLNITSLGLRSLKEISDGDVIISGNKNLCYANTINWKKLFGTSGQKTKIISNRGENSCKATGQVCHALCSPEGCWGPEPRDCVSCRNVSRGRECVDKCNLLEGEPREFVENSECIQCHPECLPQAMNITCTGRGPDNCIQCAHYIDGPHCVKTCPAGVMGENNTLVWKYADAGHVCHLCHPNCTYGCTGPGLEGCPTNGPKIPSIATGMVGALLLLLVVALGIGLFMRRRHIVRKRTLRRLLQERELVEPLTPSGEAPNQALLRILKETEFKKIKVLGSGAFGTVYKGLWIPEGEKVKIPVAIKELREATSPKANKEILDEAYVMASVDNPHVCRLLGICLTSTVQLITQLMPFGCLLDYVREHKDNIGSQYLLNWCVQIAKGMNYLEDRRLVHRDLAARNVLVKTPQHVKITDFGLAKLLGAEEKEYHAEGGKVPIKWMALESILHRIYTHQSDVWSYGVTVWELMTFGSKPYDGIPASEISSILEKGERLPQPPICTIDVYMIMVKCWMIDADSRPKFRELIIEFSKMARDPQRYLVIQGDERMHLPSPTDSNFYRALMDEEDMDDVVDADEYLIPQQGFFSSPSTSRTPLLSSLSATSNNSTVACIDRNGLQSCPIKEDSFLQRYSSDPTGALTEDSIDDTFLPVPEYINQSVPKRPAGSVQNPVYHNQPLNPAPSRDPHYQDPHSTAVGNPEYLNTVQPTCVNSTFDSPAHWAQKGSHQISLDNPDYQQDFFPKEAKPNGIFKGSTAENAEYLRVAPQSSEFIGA
# Sequence of Serine/threonine-protein kinase PLK1 (P53350 whole entry): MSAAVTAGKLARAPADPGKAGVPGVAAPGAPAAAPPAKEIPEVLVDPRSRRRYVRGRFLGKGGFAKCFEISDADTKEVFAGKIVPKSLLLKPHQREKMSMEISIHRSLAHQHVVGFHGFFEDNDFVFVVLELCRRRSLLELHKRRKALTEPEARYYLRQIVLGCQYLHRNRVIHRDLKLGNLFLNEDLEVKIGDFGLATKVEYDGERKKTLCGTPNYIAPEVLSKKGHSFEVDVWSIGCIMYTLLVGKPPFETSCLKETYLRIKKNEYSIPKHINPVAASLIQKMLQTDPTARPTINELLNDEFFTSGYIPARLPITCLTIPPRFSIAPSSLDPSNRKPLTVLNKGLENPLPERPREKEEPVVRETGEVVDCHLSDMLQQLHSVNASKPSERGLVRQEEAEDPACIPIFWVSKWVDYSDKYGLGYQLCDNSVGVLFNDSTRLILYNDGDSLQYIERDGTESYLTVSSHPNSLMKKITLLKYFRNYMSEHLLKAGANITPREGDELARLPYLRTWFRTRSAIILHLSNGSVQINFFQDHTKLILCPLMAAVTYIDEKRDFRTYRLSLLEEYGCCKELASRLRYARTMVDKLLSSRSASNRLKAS
# Sequence of Myosin-10 (P35580 whole entry): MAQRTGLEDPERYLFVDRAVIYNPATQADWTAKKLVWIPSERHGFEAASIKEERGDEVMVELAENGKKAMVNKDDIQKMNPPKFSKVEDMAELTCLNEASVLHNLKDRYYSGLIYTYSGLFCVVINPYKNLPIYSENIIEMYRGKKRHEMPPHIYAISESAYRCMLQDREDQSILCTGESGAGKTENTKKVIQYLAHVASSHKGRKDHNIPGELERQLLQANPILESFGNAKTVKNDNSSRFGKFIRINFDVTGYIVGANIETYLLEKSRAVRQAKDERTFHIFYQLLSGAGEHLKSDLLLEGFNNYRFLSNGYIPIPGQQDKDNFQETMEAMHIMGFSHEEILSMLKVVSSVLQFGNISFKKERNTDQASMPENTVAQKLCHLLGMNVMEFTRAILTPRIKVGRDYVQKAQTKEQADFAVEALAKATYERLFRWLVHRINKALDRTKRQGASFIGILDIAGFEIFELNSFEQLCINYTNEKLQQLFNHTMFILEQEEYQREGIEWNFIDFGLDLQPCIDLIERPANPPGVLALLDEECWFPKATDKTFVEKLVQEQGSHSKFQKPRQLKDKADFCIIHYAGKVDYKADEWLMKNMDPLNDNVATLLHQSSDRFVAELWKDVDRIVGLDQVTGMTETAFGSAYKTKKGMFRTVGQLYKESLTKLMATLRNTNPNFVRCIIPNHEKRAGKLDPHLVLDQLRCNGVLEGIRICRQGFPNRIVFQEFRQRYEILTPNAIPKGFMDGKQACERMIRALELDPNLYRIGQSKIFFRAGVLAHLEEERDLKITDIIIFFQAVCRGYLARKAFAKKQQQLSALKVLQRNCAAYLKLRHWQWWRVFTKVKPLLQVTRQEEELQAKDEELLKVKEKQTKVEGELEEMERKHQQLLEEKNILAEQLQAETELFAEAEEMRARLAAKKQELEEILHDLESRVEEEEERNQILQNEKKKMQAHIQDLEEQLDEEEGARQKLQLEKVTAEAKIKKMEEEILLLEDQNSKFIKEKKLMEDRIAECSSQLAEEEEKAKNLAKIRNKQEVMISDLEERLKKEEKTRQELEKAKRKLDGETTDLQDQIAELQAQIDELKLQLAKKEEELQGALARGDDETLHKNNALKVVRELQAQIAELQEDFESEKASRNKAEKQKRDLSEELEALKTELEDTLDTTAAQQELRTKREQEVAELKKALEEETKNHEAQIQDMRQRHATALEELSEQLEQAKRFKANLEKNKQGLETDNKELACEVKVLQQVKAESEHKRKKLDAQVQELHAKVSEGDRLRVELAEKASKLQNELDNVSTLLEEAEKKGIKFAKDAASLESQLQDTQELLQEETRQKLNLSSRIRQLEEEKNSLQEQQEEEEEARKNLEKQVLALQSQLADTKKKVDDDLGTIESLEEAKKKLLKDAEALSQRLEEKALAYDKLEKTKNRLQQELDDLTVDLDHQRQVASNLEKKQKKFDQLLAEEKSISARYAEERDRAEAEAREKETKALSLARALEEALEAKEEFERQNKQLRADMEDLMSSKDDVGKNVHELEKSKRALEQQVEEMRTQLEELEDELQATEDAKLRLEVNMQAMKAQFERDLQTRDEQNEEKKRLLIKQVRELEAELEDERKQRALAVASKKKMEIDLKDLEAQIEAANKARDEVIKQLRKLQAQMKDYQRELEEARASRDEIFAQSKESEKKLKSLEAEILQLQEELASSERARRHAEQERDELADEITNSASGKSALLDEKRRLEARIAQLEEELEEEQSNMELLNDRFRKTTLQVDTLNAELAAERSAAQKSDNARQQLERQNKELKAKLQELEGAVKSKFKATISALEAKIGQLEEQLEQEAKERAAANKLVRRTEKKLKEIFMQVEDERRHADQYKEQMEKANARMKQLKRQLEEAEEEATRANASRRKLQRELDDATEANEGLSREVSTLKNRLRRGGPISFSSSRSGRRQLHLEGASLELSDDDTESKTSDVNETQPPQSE
# Sequence of G protein-coupled receptor kinase 6 (P43250 whole entry): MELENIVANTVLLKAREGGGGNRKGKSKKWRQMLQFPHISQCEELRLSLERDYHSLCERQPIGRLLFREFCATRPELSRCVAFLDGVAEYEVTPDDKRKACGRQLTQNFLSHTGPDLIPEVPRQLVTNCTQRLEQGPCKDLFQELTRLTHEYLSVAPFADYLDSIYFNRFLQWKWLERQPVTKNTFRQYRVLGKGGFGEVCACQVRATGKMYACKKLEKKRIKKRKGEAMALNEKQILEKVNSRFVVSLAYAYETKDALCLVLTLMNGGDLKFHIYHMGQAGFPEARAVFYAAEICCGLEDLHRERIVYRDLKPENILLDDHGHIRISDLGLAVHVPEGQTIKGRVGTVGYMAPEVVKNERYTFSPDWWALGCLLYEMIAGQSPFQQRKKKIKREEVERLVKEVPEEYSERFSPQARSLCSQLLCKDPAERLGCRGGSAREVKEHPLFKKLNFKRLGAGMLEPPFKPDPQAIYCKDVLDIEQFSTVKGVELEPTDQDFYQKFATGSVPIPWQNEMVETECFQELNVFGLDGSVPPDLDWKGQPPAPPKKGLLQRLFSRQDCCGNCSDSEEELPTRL
# Sequence of Guanine nucleotide-binding protein G(i) subunit alpha-2 (P04899 whole entry): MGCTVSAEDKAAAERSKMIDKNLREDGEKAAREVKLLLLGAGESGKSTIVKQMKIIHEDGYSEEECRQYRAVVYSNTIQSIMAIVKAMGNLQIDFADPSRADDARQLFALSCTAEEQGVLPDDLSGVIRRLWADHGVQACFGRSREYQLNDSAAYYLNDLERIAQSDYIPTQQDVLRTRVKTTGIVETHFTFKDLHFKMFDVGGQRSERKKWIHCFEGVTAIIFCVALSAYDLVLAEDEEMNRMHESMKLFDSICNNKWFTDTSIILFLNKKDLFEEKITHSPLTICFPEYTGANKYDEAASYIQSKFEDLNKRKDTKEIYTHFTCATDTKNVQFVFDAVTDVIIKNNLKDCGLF
SMILES,Kd [1],Kd [2],Kd [3],Kd [4],Kd [5],Kd (UMP-CMP kinase),Kd [6],Kd [7],Kd [8],Kd (Myosin-10)
CN1CCC(COc2cnc(-c3cccc(Cn4nc(-c5cccc(C#N)c5)ccc4=O)c3)nc2)CC1 [TEPOTINIB],> 30 µM (inactive),> 30 µM (inactive),> 30 µM (inactive),> 30 µM (inactive),> 30 µM (inactive),> 30 µM (inactive),> 30 µM (inactive),–,–,–
Cc1ccc(-n2nc(C(C)(C)C)cc2NC(=O)NCc2cc(F)ccc2Oc2ccc3c(cnn3CCO)c2)cc1 [PEXMETINIB],–,> 30 µM (inactive),> 30 µM (inactive),> 30 µM (inactive),> 30 µM (inactive),> 30 µM (inactive),–,> 30 µM (inactive),> 30 µM (inactive),> 30 µM (inactive)
O=C1NC(=O)/C(=C/c2ccc3nccc(-c4ccncc4)c3c2)S1 [GSK-1059615],> 30 µM (inactive),> 30 µM (inactive),> 30 µM (inactive),> 30 µM (inactive),> 30 µM (inactive),–,> 30 µM (inactive),> 30 µM (inactive),> 30 µM (inactive),> 30 µM (inactive)
CNC(=O)c1cc(Oc2ccc(NC(=O)Nc3ccc(Cl)c(C(F)(F)F)c3)c(F)c2)ccn1 [REGORAFENIB],–,3.92 µM,> 30 µM (inactive),> 30 µM (inactive),> 30 µM (inactive),> 30 µM (inactive),–,> 30 µM (inactive),> 30 µM (inactive),> 30 µM (inactive)
OCCn1cc(-c2cnc3nnn(Cc4ccc5ncccc5c4)c3n2)cn1 [PF-04217903],> 30 µM (inactive),> 30 µM (inactive),> 30 µM (inactive),> 30 µM (inactive),–,> 30 µM (inactive),> 30 µM (inactive),> 30 µM (inactive),> 30 µM (inactive),> 30 µM (inactive)
CN1CCC(CNc2ccc3ncc(-c4cccc(OC(F)(F)F)c4)n3n2)CC1 [SGI-1776],> 30 µM (inactive),> 30 µM (inactive),> 30 µM (inactive),> 30 µM (inactive),> 30 µM (inactive),> 30 µM (inactive),> 30 µM (inactive),> 30 µM (inactive),> 30 µM (inactive),> 30 µM (inactive)
Cc1ccc(S(=O)(=O)Nc2nc3ccccc3nc2Nc2ccc3nsnc3c2)cc1,> 30 µM (inactive),> 30 µM (inactive),> 30 µM (inactive),> 30 µM (inactive),–,–,> 30 µM (inactive),> 30 µM (inactive),> 30 µM (inactive),> 30 µM (inactive)
CO[C@H]1C[C@@H]2CC[C@@H](C)[C@@](O)(O2)C(=O)C(=O)N2CCCC[C@H]2C(=O)O[C@H]([C@H](C)C[C@@H]2CC[C@@H](OCCO)[C@H](OC)C2)CC(=O)[C@H](C)/C=C(\C)[C@@H](O)[C@@H](OC)C(=O)[C@H](C)C[C@H](C)/C=C/C=C/C=C/1C [EVEROLIMUS],> 30 µM (inactive),> 30 µM (inactive),> 30 µM (inactive),> 30 µM (inactive),> 30 µM (inactive),> 30 µM (inactive),–,> 30 µM (inactive),> 30 µM (inactive),> 30 µM (inactive)
CCN1CCN(Cc2ccc(-c3cc4c(N[C@H](C)c5ccccc5)ncnc4[nH]3)cc2)CC1 [AEE-788],> 30 µM (inactive),> 30 µM (inactive),> 30 µM (inactive),> 30 µM (inactive),> 30 µM (inactive),–,–,> 30 µM (inactive),–,–
CC(=O)Nc1cccc(-n2c(=O)n(C3CC3)c(=O)c3c(Nc4ccc(I)cc4F)n(C)c(=O)c(C)c32)c1 [TRAMETINIB],> 30 µM (inactive),> 30 µM (inactive),> 30 µM (inactive),> 30 µM (inactive),> 30 µM (inactive),> 30 µM (inactive),> 30 µM (inactive),> 30 µM (inactive),> 30 µM (inactive),> 30 µM (inactive)
Cc1cc(-c2cc(O)ccc2Cl)cc2nnc(Nc3ccc(OCCN4CCCC4)cc3)nc12,–,> 30 µM (inactive),> 30 µM (inactive),–,–,> 30 µM (inactive),> 30 µM (inactive),> 30 µM (inactive),> 30 µM (inactive),> 30 µM (inactive)

# Source: ChEMBL document CHEMBL3991601, “The target landscape of clinical kinase drugs” (Science, 2017)
